Where two headings read alike, the source gives them in different places.

For assay [1], the target named is human Gal-1 (hGal-1) (Homo sapiens, UniProt P09382). The experiment in a line: Competitive binding assay: biotinylated hGal-1 binding to microplate-adsorbed asialofetuin (ASF), spectrophotometric. The settings on record: hGal-1 binding to asialofetuin; Table 15; R and S epimers of selected Examples also listed; read-out: IC50 (Galectin-1 inhibition). Here is the method:
(§1) Biological Assay Evaluation of Compound Inhibitory Activity (IC50)
The inhibitory activity of compounds is determined in competitive binding assays. This spectrophotometric assay measures the binding of biotinylated human Gal-3 (hGal-3) or human Gal-1 (hGal-1), respectively, to a microplate-adsorbed glycoprotein, asialofetuin (ASF) (Proc Natl Acad Sci USA. 2013 Mar. 26; 110(13):5052-7.).
Briefly, compounds are serially diluted in DMSO (working dilutions). ASF-coated 384well plates are supplemented with 22.8 μL/well of biotinylated hGal-3 or hGal-1 in assay buffer (i.e. 300-1000 ng/mL biotinylated hGal-3 or hGal-1) to which 1.2 μL of compound working dilutions are added and mixed.
(§2) Plates are incubated for 3 hours at 4° C., then washed with cold assay buffer (3×50 uL), incubated for 1 hour with 25 μL/well of a streptavidin-peroxidase solution (diluted in assay buffer to 80 ng/mL) at 4° C., followed by further washing steps with assay buffer (3×50 uL). Finally, 25 μL/well of ABTS substrate is added.
(§3) The calculated IC50 values may fluctuate depending on the daily assay performance. Fluctuations of this kind are known to those skilled in the art. IC50 values from several measurements are given as mean values.

The target in assay [2] is biotinylated human Gal-3 (hGal-3) (Homo sapiens, UniProt P17931). The experiment in a line: Competitive binding assay: biotinylated hGal-3 binding to microplate-adsorbed asialofetuin (ASF), spectrophotometric. As for the experimental part:
If not explicitly mentioned otherwise, the inhibition data refer to the binding of biotinylated human Gal-3 (hGal-3).
as §1
The inhibitory activity of compounds is determined in competitive binding assays.
Briefly, compounds are serially diluted in DMSO (working dilutions).
as §2, §3

Setting [3] is: Table 6, hGal-3, read-out: IC50 (Gal-3 inhibition).
[4] abbreviates: Gal-3 inhibition, Table 4, read-out: IC50.
Where [5] appears, read: Table 11, hGal-3, read-out: IC50 (Gal-3 inhibition).
Setting [6] is: Gal-3 inhibition, Table 7, read-out: IC50.
Setting [7] is: Table 12, hGal-3, read-out: IC50 (Gal-3 inhibition).

Sequence of biotinylated human Gal-3 (hGal-3) (P17931 whole entry): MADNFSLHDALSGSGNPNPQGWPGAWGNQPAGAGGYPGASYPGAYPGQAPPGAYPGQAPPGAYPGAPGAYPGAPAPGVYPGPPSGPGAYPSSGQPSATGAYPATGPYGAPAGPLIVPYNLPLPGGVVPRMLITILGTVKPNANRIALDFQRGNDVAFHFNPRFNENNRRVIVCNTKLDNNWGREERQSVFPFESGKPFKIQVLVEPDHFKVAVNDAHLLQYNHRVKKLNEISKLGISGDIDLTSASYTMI
Sequence of human Gal-1 (hGal-1) (P09382 whole entry): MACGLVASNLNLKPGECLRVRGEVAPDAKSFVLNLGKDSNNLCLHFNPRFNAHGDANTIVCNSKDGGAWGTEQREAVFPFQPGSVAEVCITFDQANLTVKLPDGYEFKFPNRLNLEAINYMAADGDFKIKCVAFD

With `CCN(C)C(=O)C(S[C@@H]1O[C@H](CO)[C@H](O)[C@H](n2cc(-c3cc(F)c(F)c(F)c3)nn2)[C@H]1O)C(O)Cc1ccccc1` (stereo partly shown) [Example 2.64.203], the IC50 in assay [1] stood at 1460 nM. For the molecule `CC(C)(O)[C@H](S[C@@H]1O[C@H](CO)[C@H](O)[C@H](n2cc(-c3cc(F)c(F)c(F)c3)nn2)[C@H]1O)C(=O)N1CCCC1` [Example 2.31.211S, (S)-2-(((2S,3R,4S,5R,6R)-3,5-Dihydroxy-6-(hydroxymethyl)-4-(4-(3,4,5-trifluorophenyl)-1H-1,2,3-triazol-1-yl)tetrahydro-2H-pyran-2-yl)thio)-3-hydroxy-3-methyl-1-(pyrrolidin-1-yl)butan-1-one], in assay [2] (setting [3]), the concentration for half-maximal inhibition (IC50) came to 80 nM.

Turning to `CC1CN(C(=O)[C@@H](S[C@@H]2O[C@H](CO)[C@H](O)[C@H](n3cc(-c4cc(F)c(F)c(F)c4)nn3)[C@H]2O)C(C)(C)O)C1` [Example 2.31.205S., (S)-2-(((2S,3R,4S,5R,6R)-3,5-dihydroxy-6-(hydroxymethyl)-4-(4-(3,4,5-trifluorophenyl)-1H-1,2,3-triazol-1-yl)tetrahydro-2H-pyran-2-yl)thio)-3-hydroxy-3-methyl-1-(3-methylazetidin-1-yl)butan-1-one], the 50% inhibitory concentration (IC50) in assay [1] came out at 820 nM.

As to `CCN(C(=O)C(S[C@@H]1O[C@H](CO)[C@H](O)[C@H](n2cc(-c3cc(F)c(F)c(F)c3)nn2)[C@H]1OC)C1(O)CCC(F)(F)CC1)C1CC1` (stereo partly shown) [Example 2.44.238.I.], the IC50 in assay [2] (Table 10, hGal-3, read-out: IC50 (Gal-3 inhibition)) turned out to be 40 nM. Take `CN(CCC1CCOCC1)C(=O)[C@H](S[C@@H]1O[C@H](CO)[C@H](O)[C@H](n2cc(-c3cc(F)c(F)c(F)c3)nn2)[C@H]1O)C1(O)CCOCC1` [Example 2.41.216R., (R)-2-(((2S,3R,4S,5R,6R)-3,5-Dihydroxy-6-(hydroxymethyl)-4-(4-(3,4,5-trifluorophenyl)-1H-1,2,3-triazol-1-yl)tetrahydro-2H-pyran-2-yl)thio)-2-(4-hydroxytetrahydro-2H-pyran-4-yl)-N-methyl-N-(2-(tetrahydro-2H-pyran-4-yl)ethyl)acetamide]: in assay [2] (setting [4]), the IC50 turned out to be 1530 nM.

For the molecule `Cc1cc(-c2cn([C@H]3[C@@H](O)[C@@H](CO)O[C@@H](S[C@@H](C(=O)N(C)C4CC4)C4(O)CCC(F)(F)CC4)[C@@H]3O)nn2)cnc1F` [Example 21.44.221R, (R)-N-Cyclopropyl-2-(4,4-difluoro-1-hydroxycyclohexyl)-2-(((2S,3R,4S,5R,6R)-4-(4-(6-fluoro-5-methylpyridin-3-yl)-1H-1,2,3-triazol-1-yl)-3,5-dihydroxy-6-(hydroxymethyl)tetrahydro-2H-pyran-2-yl)thio)-N-methylacetamide], the IC50 in assay [2] (setting [5]) was 230 nM.

Take `CCN(C)C(=O)C(S[C@@H]1O[C@H](CO)[C@H](O)[C@H](n2cc(-c3cc(F)c(F)c(F)c3)nn2)[C@H]1O)C(O)Cc1ccccc1` (stereo partly drawn) [Example 2.64.203., 2-(((2S,3R,4S,5R,6R)-3,5-Dihydroxy-6-(hydroxymethyl)-4-(4-(3,4,5-trifluorophenyl)-1H-1,2,3-triazol-1-yl)tetrahydro-2H-pyran-2-yl)thio)-N-ethyl-3-hydroxy-N-methyl-4-phenylbutanamide]: in assay [2] (setting [6]), the IC50 was 220 nM.

For the molecule “(R)-2-(4,4-Difluoro-1-hydroxycyclohexyl)-2-(((2S,3R,4S,5R,6R)-3,5-dihydroxy-6-(hydroxymethyl)-4-(4-(3,4,5-trifluorophenyl)-1H-1,2,3-triazol-1-yl)tetrahydro-2H-pyran-2-yl)thio)-1-(piperidin-1-yl)ethan-1-one [Example 2.44.208R.]”, the IC50 in assay [2] (Gal-3 inhibition, Table 5, read-out: IC50) worked out at 3360 nM. Consider `CCC(O)C(S[C@@H]1O[C@H](CO)[C@H](O)[C@H](n2cc(-c3cc(F)c(F)c(F)c3)nn2)[C@H]1O)C(=O)N(C)CC1CC1` (stereo partly shown) [Example 2.60.218], for which, in assay [1], the IC50 was 200 nM. In the case of `O=C([C@H](S[C@@H]1O[C@H](CO)[C@H](O)[C@H](n2cc(-c3cc(F)c(F)c(F)c3)nn2)[C@H]1O)C1(O)CCOCC1)N1CCc2ccccc21` [Example 2.41.209R., (R)-2-(((2S,3R,4S,5R,6R)-3,5-Dihydroxy-6-(hydroxymethyl)-4-(4-(3,4,5-trifluorophenyl)-1H-1,2,3-triazol-1-yl)tetrahydro-2H-pyran-2-yl)thio)-2-(4-hydroxytetrahydro-2H-pyran-4-yl)-1-(indolin-1-yl)ethan-1-one], in assay [2] (setting [4]), the IC50 is 1310 nM. In the case of `Cc1cc(-c2cn([C@H]3[C@@H](O)[C@@H](CO)O[C@@H](S[C@H](C(=O)N(C)C4CC4)C4(O)CCC(F)(F)CC4)[C@@H]3O)nn2)cnc1F` [Example 21.44.221S, (S)-N-Cyclopropyl-2-(4,4-difluoro-1-hydroxycyclohexyl)-2-(((2S,3R,4S,5R,6R)-4-(4-(6-fluoro-5-methylpyridin-3-yl)-1H-1,2,3-triazol-1-yl)-3,5-dihydroxy-6-(hydroxymethyl)tetrahydro-2H-pyran-2-yl)thio)-N-methylacetamide], the IC50 in assay [2] (setting [5]) was found to be 50 nM.

On to `CCC(O)C(S[C@@H]1O[C@H](CO)[C@H](O)[C@H](n2cc(-c3cc(F)c(F)c(F)c3)nn2)[C@H]1O)C(=O)N(C)CC1CC1` (stereo partly drawn) [Example 2.60.218., N-(Cyclopropylmethyl)-2-(((2S,3R,4S,5R,6R)-3,5-dihydroxy-6-(hydroxymethyl)-4-(4-(3,4,5-trifluorophenyl)-1H-1,2,3-triazol-1-yl)tetrahydro-2H-pyran-2-yl)thio)-3-hydroxy-N-methylpentanamide], for which the IC50 in assay [2] (setting [6]) was determined as 120 nM. For the molecule `CO[C@@H]1[C@@H](n2cc(-c3cc(F)c(F)c(F)c3)nn2)[C@@H](O)[C@@H](CO)O[C@H]1SC(C(=O)N(C)C1CC(F)(F)C1)C1(O)CCC(F)(F)CC1` (stereo partly drawn) [Example 2.44.237.I., 2-(4,4-Difluoro-1-hydroxycyclohexyl)-N-(3,3-difluorocyclobutyl)-2-(((2S,3R,4S,5R,6R)-5-hydroxy-6-(hydroxymethyl)-3-methoxy-4-(4-(3,4,5-trifluorophenyl)-1H-1,2,3-triazol-1-yl)tetrahydro-2H-pyran-2-yl)thio)-N-methylacetamide], in assay [2] (setting [7]), the IC50 was found to be 90 nM.

For the molecule `CO[C@@H]1[C@@H](n2cc(-c3cc(F)c(F)c(F)c3)nn2)[C@@H](O)[C@@H](CO)O[C@H]1SC(C(=O)NC1CCC(C)(C)CC1)C1(O)CCC(F)(F)CC1` (stereo partly drawn) [Example 2.44.255.I, 2-(4,4-Difluoro-1-hydroxycyclohexyl)-N-(4,4-dimethylcyclohexyl)-2-(((2S,3R,4S,5R,6R)-5-hydroxy-6-(hydroxymethyl)-3-methoxy-4-(4-(3,4,5-trifluorophenyl)-1H-1,2,3-triazol-1-yl)tetrahydro-2H-pyran-2-yl)thio)acetamide], in assay [2] (setting [7]), the 50% inhibitory concentration (IC50) came out at 390 nM. Turning to `CCN(C)C(=O)[C@H](S[C@@H]1O[C@H](CO)[C@H](O)[C@H](n2cc(-c3cc(F)c(F)c(F)c3)nn2)[C@H]1O)C(C)(C)O` [Example 2.31.203R., (R)-2-(((2S,3R,4S,5R,6R)-3,5-Dihydroxy-6-(hydroxymethyl)-4-(4-(3,4,5-trifluorophenyl)-1H-1,2,3-triazol-1-yl)tetrahydro-2H-pyran-2-yl)thio)-N-ethyl-3-hydroxy-N,3-dimethylbutanamide], the IC50 in assay [2] (Gal-3 inhibition, Table 3, read-out: IC50) is 3880 nM. Consider `CC(C)(O)[C@@H](S[C@@H]1O[C@H](CO)[C@H](O)[C@H](n2cc(-c3cc(F)c(F)c(F)c3)nn2)[C@H]1O)C(=O)N1CCCC1` [Example 2.31.211R., (R)-2-(((2S,3R,4S,5R,6R)-3,5-Dihydroxy-6-(hydroxymethyl)-4-(4-(3,4,5-trifluorophenyl)-1H-1,2,3-triazol-1-yl)tetrahydro-2H-pyran-2-yl)thio)-3-hydroxy-3-methyl-1-(pyrrolidin-1-yl)butan-1-one], for which the IC50 in assay [2] (setting [3]) came out at 310 nM.

Usually IC50 stands for the point on the concentration scale where inhibition reaches its midpoint.

Source of the values: US12410208B2, “(2-acetamidyl)thio-beta-D-galactopyranoside derivatives” (Idorsia Pharmaceuticals Ltd, priority 2020, dated 2025).
